Experimental data taken from a melting point compilation (Tetko et al.; mined from patent text by program, amines drawn as free bases though some values may be those of a salt).

Point of comparison: `ClC(Cl)=CCOc1cc(Cl)c(OCc2ccc3ccccc3c2)c(Cl)c1`, melting point 86.7 °C. Against it:
- CCOC(=O)CCc1ccc2cc(O)ccc2n1 — higher, 126 to 128 °C
- Cc1nn(C)c2c1N=C(c1ccc(-n3c(C)nc4cnccc43)cc1)C(C)C(=O)N2C (configuration not stated) — higher, 222 to 225 °C
- COC(=O)NC1=NCC(c2cc(Cl)ccc2Cl)CN1 (configuration not stated) — higher, 231 to 234 °C
- COCC1CN(c2ccc(OCCC(C)O)cc2)C(=O)O1 (configuration not stated) — lower, 58 °C
- O=C(CCc1ccccc1)N1CCN(C(=O)C(Cc2ccc(O)cc2)NS(=O)(=O)c2cccc3cnccc23)CC1 (configuration not stated) — higher, 172 to 178 °C
- O=C(Nc1ccc2ccc(Cl)nc2n1)C1=CSCCO1 — higher, 270 °C
- Cn1cc(C2=C(c3cn(CCCC#N)c4ccccc34)C(=O)NC2=O)c2ccccc21 — higher, 245 to 247 °C
- CCCc1nc2c(N)nc3cc(OCCCO)ccc3c2s1 — higher, 157 to 160 °C
- N#CN=C(Nc1cccnc1)NC(NC(=O)c1ccc(Cl)cc1)C(F)(F)C(F)(F)F (configuration not stated) — higher, 177 to 178 °C
- Cc1sc2c(c1C)C(C1CCCCC1)=NCC(=O)N2 — higher, 205 °C
- O=c1cc(-c2ccc(F)cc2)oc(N2CCOCC2)c1 — higher, 216 to 217 °C
- CC1Oc2ccc(CN3CCN(c4nc(-c5ccccc5)ns4)CC3)cc2NC1=O (configuration not stated) — higher, 192 to 221 °C
- O=C([C@H]1CC[C@H](Nc2nccc(-n3ncc4ccccc43)n2)CC1)N1CCOCC1 — higher, 191 to 192 °C
- O=C/C=C/c1cc2ccccc2[nH]1 — higher, 203 to 204 °C
- O=[N+]([O-])CS(=O)(=O)c1ccc(Oc2ccccc2)cc1 — higher, 118 to 120 °C
- CCOc1ccc(C(=O)N2CCNC2=Nc2c(Cl)cccc2Cl)cc1 — higher, 146 to 148 °C
- CC[C@H]1[C@H](O)CC(=O)N1c1ccc(C#N)c(Cl)c1 — higher, 118 to 120 °C
- CCCc1c(C(=O)N(C)Cc2ccc3c(Br)c(OCC#N)ccc3c2)cnn1-c1ccccc1 — lower, 76 to 80 °C
- COc1ccc2c(c1)c1c3c(c(-c4c(Cl)cccc4Cl)cc1n2CCC(N)=O)C(=O)NC3=O — higher, 261 to 264 °C
- NNC(=O)Cc1cc(C(=O)c2ccc(Br)cc2)sc1-c1ccccc1 — higher, 157 to 161 °C
- CCOC(=O)C1(C(=O)OCC)CC(c2ccc(Cl)cc2N)=CN1C(C)=O — higher, 152 to 153 °C
- C[C@H]1CCCC(C)(C)[C@@H]1C(=O)c1ccoc1 — higher, 114 to 116 °C
- CC(=O)OC1(C(C)=O)CCC2C3C=C(Cl)C4=CC(=O)OC(O)C4(C)C3CCC21C (configuration not stated) — higher, 276 to 278 °C
- O=S(=O)(Cl)c1cc(S(=O)(=O)Cl)c2c(Cl)ccc(S(=O)(=O)Cl)c2c1 — higher, 165 to 166 °C
- CC1SC(=O)NN=C1c1ccc2c(c1)C(=NNc1ccc(Cl)cc1)C(=O)N2 (configuration not stated) — higher, 283 °C
- Cc1nc(NC(=O)OCc2ccccc2)c2n1-c1ccc(Cl)cc1C(c1ccccc1F)=NC2 — higher, 250 to 253 °C
- Cc1ccc(CN2CCC3(CC2)CSC2=C(O3)c3ccccc3C(=O)C2=O)cc1 — higher, 156 to 158 °C
- CCC1(CC)NC(C)(C)CN(c2ccccc2)C1=O — lower, 54 to 56 °C
- CC(=O)C(=Cc1ccc(S(C)(=O)=O)c(Cl)c1)C(C)=O — higher, 140 to 142 °C
- COC(=O)c1ccccc1OCNC(=O)OC(C)(C)C — higher, 95 to 96 °C
- COc1ccc(N)c(S)c1 — higher, 104 °C
- COc1cccc2c1C(C)N1CC(=O)NC1=N2 (configuration not stated) — higher, 250 °C
- CC1c2cc(Cl)ccc2-c2ccc(Cl)cc21 — higher, 110 to 112 °C
- CCOC(=O)c1ccc(OCCN2CCN(c3ccc(I)nn3)CC2)cc1 — higher, 123 °C
- O=C(Cc1ccc(Cl)cc1)c1cccs1 — higher, 98 to 99 °C
- CC(C)C1CC(=O)Nc2nc(C#N)c3ncccc3c21 (configuration not stated) — higher, 220 °C
- Cn1cncc1C(O)c1ccc2nc(Cl)nc(-c3cccc(Cl)c3)c2c1 (configuration not stated) — higher, 140 °C
- O=Cc1c(O)cccc1OCCCCC(=O)O — higher, 94 °C
- CC(C)(C)OC(=O)NCC(O)c1ccsc1 (configuration not stated) — higher, 103 to 105 °C
- COc1ccc(C(Cc2cnccn2)c2ccccc2)cc1OC1CCCC1 (configuration not stated) — lower, 71.5 to 72 °C
- O=C(c1cc(Br)cc(Br)c1O)c1cc(Br)cc(Br)c1O — higher, 179 °C
- Cc1ccc(NCc2c(F)c(F)c(C(F)(F)F)c(F)c2F)cc1C(=O)O — lower, 84 °C
- CCCS(=O)(=O)c1c(S(N)(=O)=O)c(C)nn1C — higher, 127 to 129 °C
- Cc1c(F)cnc(N)c1F — higher, 92 to 93 °C
- O=C1NCc2ccsc21 — higher, 104 to 105 °C
- CCC(CC)n1c(=O)sc2c(=O)[nH]c(N)nc21 — higher, > 232 °C
- COc1ccc(Oc2cc3c(cc2Cl)C=C(C(=O)O)C(C(F)(F)F)O3)cc1 (configuration not stated) — higher, 213 to 214 °C
- O=C(Nc1ccc(-c2nc3ccccc3s2)cc1)c1ccccc1 — higher, 227 to 228 °C
- Cn1cc(C2=C(c3cn(CCCNc4ccc([N+](=O)[O-])cn4)c4ccccc34)C(=O)NC2=O)c2ccccc21 — higher, 245 to 247 °C
- OC(COc1ccc(Cl)cc1)CN1CCN(c2ncccc2F)CC1 (configuration not stated) — lower, 73 to 76 °C
- CC(=O)c1ccc(NC(=O)Nc2ccc(S(N)(=O)=O)cc2)cc1 — higher, 258 to 260 °C
